The text below walks through data of patent US20240300976A1, “COMPOUNDS AS MODULATORS OF ENDOPLASMIC RETICULUM AMINOPEPTIDASE 1 (ERAP1)” (GREY WOLF THERAPEUTICS LIMITED, priority 2020, published 2024).

Each structure is given as a SMILES string.

T1 sequence (Q9NZ08 37-941): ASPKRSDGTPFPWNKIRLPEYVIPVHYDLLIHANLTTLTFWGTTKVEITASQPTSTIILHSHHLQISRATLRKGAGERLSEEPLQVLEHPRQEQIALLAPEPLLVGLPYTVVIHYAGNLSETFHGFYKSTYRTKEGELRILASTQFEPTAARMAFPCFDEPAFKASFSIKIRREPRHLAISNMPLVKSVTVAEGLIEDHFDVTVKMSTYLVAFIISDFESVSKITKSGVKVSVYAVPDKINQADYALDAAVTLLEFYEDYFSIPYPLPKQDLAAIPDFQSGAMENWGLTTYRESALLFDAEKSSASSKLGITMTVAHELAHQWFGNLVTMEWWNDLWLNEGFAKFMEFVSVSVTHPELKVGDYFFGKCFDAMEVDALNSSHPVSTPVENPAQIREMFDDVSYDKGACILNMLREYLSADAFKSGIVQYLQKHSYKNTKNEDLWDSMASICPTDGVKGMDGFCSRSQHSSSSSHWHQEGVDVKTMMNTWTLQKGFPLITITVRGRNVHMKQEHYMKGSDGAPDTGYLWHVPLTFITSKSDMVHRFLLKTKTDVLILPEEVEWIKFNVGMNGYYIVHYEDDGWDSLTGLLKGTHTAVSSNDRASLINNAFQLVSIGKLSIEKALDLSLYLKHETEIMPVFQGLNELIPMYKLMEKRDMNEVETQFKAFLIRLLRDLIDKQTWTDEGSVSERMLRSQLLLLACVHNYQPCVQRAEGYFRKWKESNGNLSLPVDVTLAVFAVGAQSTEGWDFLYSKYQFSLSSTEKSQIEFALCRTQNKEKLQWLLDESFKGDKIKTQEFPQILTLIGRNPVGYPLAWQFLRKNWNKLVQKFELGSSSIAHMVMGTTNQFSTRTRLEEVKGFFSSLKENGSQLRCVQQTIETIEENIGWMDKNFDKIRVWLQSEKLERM

This experiment addresses T1, ERAP1 (Homo sapiens, UniProt Q9NZ08).
T1 construct: Purified ERAP1(37-941)-10His (ERAP1); 10His (C)
Nature of the experiment: ERAP1 mediated hydrolysis of an amide substrate (10-mer inhibition assay), biochemical system. The following applies: 10-mer substrate, incubated at 23° C. for 1 h, excitation 279 nm and emission 355 nm; read-out: IC50 vs Decapeptide WRVYEKC(Dnp)ALK-acid (where Dnp is Dinitrophenyl maleimide) (10-mer). The source says: This peptide has minimal fluorescence as the N-terminal tryptophan residue's fluorescence is quenched by the dinitrophenol (DNP) residue within the peptide. However, as ERAP1 hydrolyses the N-terminal amide bond and tryptophan is released this internal quenching is lost and the reaction is monitored by the increase in tryptophan fluorescence over the course of the assay. For the purposes of this application this assay is referred to as the “1 Omer inhibition assay” and compound potencies are calculated and expressed as 1050 as would be familiar to a person skilled in the art.
Biological Assay 1: ERAP1 Mediated Hydrolysis of an Amide Substrate Measured in a Biochemical System
• 1× Assay buffer (AB): 25 mM Bis-tris propane, 0.05% w/v Hydroxypropylmethylcellulose pH 7.75 made with Optima grade water • Decapeptide WRVYEKC(Dnp)ALK-acid (where Dnp is Dinitrophenyl maleimide) (10-mer) • L-Leucine 7-amido-4-methylcoumarin (L-AMC) • Purified ERAP1(37-941)-10His (ERAP1)
12.5 μL ERAP1 enzyme in 1×AB was combined with 250 nL test compound in DMSO. 12.5 μL of either 240 μM L-AMC in 1×AB or 100 μM 10-mer in 1×AB was added to the reaction and incubated at 23° C. for 1 h. For detection, plates were read at excitation 365 nm and emission 442 nm (L-AMC) or excitation 279 nm and emission 355 nm (10-mer). Compound IC50 was determined using a 4-parameter equation.
Broadly, the IC50 is the concentration that inhibits the measured activity by half. With `CS(=O)(=O)c1ccc2c(c1)NS(=O)(=O)c1cc(C(=O)O)ccc1OCC1CCCCN21` (racemic) [Example 18, 8-(methylsulfonyl)-12,13,14,15,15a,16-hexahydro-6H-dibenzo[b,f]pyrido[1,2-h][1,4,5,8]oxathiadiazecine-3-carboxylic acid 5,5-dioxide], the IC50 fell in the range of 250 to 1000 nM. For `CS(=O)(=O)c1cc2c(cc1F)N1CCCCC1CCCCOc1ccc(C(=O)O)cc1S(=O)(=O)N2` (racemic) [Example 31, 3-fluoro-2-(methylsulfonyl)-7,8,9,9a,10,11,12,13-octahydro-6H, 20H-dibenzo[b,f]pyrido[1,2-h][1]oxa[4]thia[5,8]diazacyclotridecine-17-carboxylic acid 19,19-dioxide] the value was under 250 nM; for `N#Cc1cc2c(cc1Cl)N1CCCC[C@H]1COCCOc1ccc(C(=O)O)cc1S(=O)(=O)N2` (single isomer, unassigned) [Example 68], under 250 nM; for `N#Cc1cc2c(cc1Cl)N1CCCC[C@H]1COCCOc1ccc(C(=O)O)cc1S(=O)(=O)N2` [Example 69, (S)-3-chloro-2-cyano-6,7,8,9,9a,10,12,13-octahydro-20H-dibenzo[e,i]pyrido[1,2-k][1,4]dioxa[7]thia[8,11]diazacyclotridecine-17-carboxylic acid 19,19-dioxide], under 250 nM. In the case of `N#Cc1cc2c(cc1Cl)N1CCCC[C@@H]1CCCOc1ccc(C(=O)O)cc1S(=O)(=O)N2` [Example 59, (R)-3-chloro-2-cyano-6,7,8,9,9a,10,11,12-octahydro-19H-dibenzo[b,f]pyrido[1,2-h][1]oxa[4]thia[5,8]diazacyclododecine-16-carboxylic acid 18,18-dioxide], the IC50 was under 250 nM. For `N#Cc1cc2c(cc1Cl)N1CCCC[C@H]1C/C=C/COc1ccc(C(=O)O)cc1S(=O)(=O)N2` [Example 61, (S,E)-3-chloro-2-cyano-7,8,9,9a,10,13-hexahydro-6H, 20H-dibenzo[b,f]pyrido[1,2-h][1]oxa[4]thia[5,8]diazacyclotridecine-17-carboxylic acid 19,19-dioxide], the IC50 is under 250 nM. Turning to `N#Cc1cc2c(cc1Cl)N1CCCC[C@H]1COC/C=C/c1ccc(C(=O)O)cc1S(=O)(=O)N2` [Example 70, (S,E)-3-chloro-2-cyano-6,7,8,9,9a,10-hexahydro-12H, 20H-dibenzo[e,i]pyrido[2,1-c][1]oxa[8]thia[4,7]diazacyclotridecine-17-carboxylic acid 19,19-dioxide], the IC50 is under 250 nM. In the case of `N#Cc1ccc2c(c1)NS(=O)(=O)c1cc(C(=O)O)ccc1OC/C=C/CC1CCCCN21` (single isomer, unassigned) [Example 33, (E)-2-cyano-7,8,9,9a,10,13-hexahydro-6H, 20H-dibenzo[b,f]pyrido[1,2-h][1]oxa[4]thia[5,8]diazacyclotridecine-17-carboxylic acid 19,19-dioxide], the IC50 is over 1000 nM. For `CS(=O)(=O)NC(=O)c1ccc2c(c1)S(=O)(=O)Nc1cc(C#N)c(Cl)cc1N1CCCC[C@H]1/C=C/CO2` (single isomer, unassigned) [Example 58] the value was over 1000 nM; for `N#Cc1ccc2c(c1)NS(=O)(=O)c1cc(C(=O)O)ccc1OCCCCC1CCCCN21` (racemic) [Example 4, 2-cyano-7,8,9,9a,10,11,12,13-octahydro-6H,20H-dibenzo[b,f]pyrido[1,2-h][1]oxa[4]thia[5,8]diazacyclotridecine-17-carboxylic acid 19,19-dioxide], under 250 nM; for `N#Cc1cc2c(cc1Cl)N1CCCCC1CCCCOc1ccc(C(=O)O)cc1S(=O)(=O)N2` (single isomer, unassigned) [Example 26, 3-chloro-2-cyano-7,8,9,9a,10,11,12,13-octahydro-6H, 20H-dibenzo[b,f]pyrido[1,2-h][1]oxa[4]thia[5,8]diazacyclotridecine-17-carboxylic acid 19,19-dioxide], under 250 nM. Take `N#Cc1cc2c(cc1Cl)N1CCCC[C@H]1CCCCOc1ccc(C(=O)O)cc1S(=O)(=O)N2` [Example 53, (S)-3-chloro-2-cyano-7,8,9,9a,10,11,12,13-octahydro-6H, 20H-dibenzo[b,f]pyrido[1,2-h][1]oxa[4]thia[5,8]diazacyclotridecine-17-carboxylic acid 19,19-dioxide]: the IC50 is under 250 nM. As for `N#Cc1cc2c(cc1F)N1CCCCC1CCCOc1ccc(C(=O)O)cc1S(=O)(=O)N2` (single isomer, unassigned) [Example 41, 2-cyano-3-fluoro-6,7,8,9,9a,10,11,12-octahydro-19H-dibenzo[b,f]pyrido[1,2-h][1]oxa[4]thia[5,8]diazacyclododecine-16-carboxylic acid 18,18-dioxide], the IC50 is under 250 nM. For `N#Cc1cc2c(cc1Cl)N1CCCCC1C/C=C/COc1ccc(C(=O)O)cc1S(=O)(=O)N2` (single isomer, unassigned) [Example 46, (E)-3-chloro-2-cyano-7,8,9,9a,10,13-hexahydro-6H, 20H-dibenzo[b,f]pyrido[1,2-h][1]oxa[4]thia[5,8]diazacyclotridecine-17-carboxylic acid 19,19-dioxide] the value was under 250 nM.

With `N#Cc1cc2c(cc1F)N1CCCCC1CCCOc1ccc(C(=O)O)cc1S(=O)(=O)N2` (racemic) [Example 29, 2-cyano-3-fluoro-6,7,8,9,9a,10,11,12-octahydro-19H-dibenzo[b,f]pyrido[1,2-h][1]oxa[4]thia[5,8]diazacyclododecine-16-carboxylic acid 18,18-dioxide], the IC50 is under 250 nM. On to `N#Cc1cc2c(cc1Cl)N1CCCCC1CCCCOc1ccc(C(=O)O)cc1S(=O)(=O)N2` (racemic) [Example 22, 3-chloro-2-cyano-7,8,9,9a,10,11,12,13-octahydro-6H, 20H-dibenzo[b,f]pyrido[1,2-h][1]oxa[4]thia[5,8]diazacyclotridecine-17-carboxylic acid 19,19-dioxide], for which the IC50 is under 250 nM. For `N#Cc1cc2c(cc1Cl)N1CCCC[C@H]1CCCCCc1ccc(C(=O)O)cc1S(=O)(=O)N2` [Example 72, (R)-3-chloro-2-cyano-6,7,8,9,9a,10,11,12,13,14-decahydro-20H-dibenzo[c,l]pyrido[1,2-e][1]thia[2,5]diazacyclotridecine-17-carboxylic acid 19,19-dioxide] the value was under 250 nM. Turning to `CS(=O)(=O)c1cc2c(cc1F)N1CCCCC1COc1ccc(C(=O)O)cc1S(=O)(=O)N2` (single isomer, unassigned) [Example 39, 9-fluoro-8-(methylsulfonyl)-12,13,14,15,15a,16-hexahydro-6H-dibenzo[b,f]pyrido[1,2-h][1,4,5,8]oxathiadiazecine-3-carboxylic acid 5,5-dioxide], the IC50 was under 250 nM.

On to `N#Cc1cc2c(cc1Cl)N1CCCCC1COc1ccc(C(=O)O)cc1S(=O)(=O)N2` (single isomer, unassigned) [Example 17, 9-chloro-8-cyano-12,13,14,15,15a,16-hexahydro-6H-dibenzo[b,f]pyrido[1,2-h][1,4,5,8]oxathiadiazecine-3-carboxylic acid 5,5-dioxide], for which the concentration for half-maximal inhibition (IC50) is under 250 nM. For `N#Cc1ccc2c(c1)NS(=O)(=O)c1cc(C(=O)O)ccc1OCCCCC1CCCCN21` (single isomer, unassigned) [Example 12, 2-cyano-7,8,9,9a,10,11,12,13-octahydro-6H,20H-dibenzo[b,f]pyrido[1,2-h][1]oxa[4]thia[5,8]diazacyclotridecine-17-carboxylic acid 19,19-dioxide] the value was 250 to 1000 nM; for `N#Cc1cc2c(cc1F)N1CCCCC1COc1ccc(C(=O)O)cc1S(=O)(=O)N2` (racemic) [Example 24, 8-cyano-9-fluoro-12,13,14,15,15a,16-hexahydro-6H-dibenzo[b,f]pyrido[1,2-h][1,4,5,8]oxathiadiazecine-3-carboxylic acid 5,5-dioxide], under 250 nM. `N#Cc1cc2c(cc1Cl)N1CCCC[C@@H]1CCCCOc1ccc(C(=O)O)cc1S(=O)(=O)N2` [Example 52, (R)-3-chloro-2-cyano-7,8,9,9a,10,11,12,13-octahydro-6H,20H-dibenzo[b,f]pyrido[1,2-h][1]oxa[4]thia[5,8]diazacyclotridecine-17-carboxylic acid 19,19-dioxide]: the IC50 is under 250 nM. For `N#Cc1ccc2c(c1)NS(=O)(=O)c1cc(C(=O)O)ccc1OCC1CCCCN21` (single isomer, unassigned) [Example 11, 8-cyano-12,13,14,15,15a,16-hexahydro-6H-dibenzo[b,f]pyrido[1,2-h][1,4,5,8]oxathiadiazecine-3-carboxylic acid 5,5-dioxide] the value was 250 to 1000 nM; for `N#Cc1ccc2c(c1)NS(=O)(=O)c1cc(C(=O)O)ccc1OCCCCC1CCCCN21` (single isomer, unassigned) [Example 13, 2-cyano-7,8,9,9a,10,11,12,13-octahydro-6H,20H-dibenzo[b,f]pyrido[1,2-h][1]oxa[4]thia[5,8]diazacyclotridecine-17-carboxylic acid 19,19-dioxide], under 250 nM.
